{"source": "patent US9982232B2", "about": "“Methods of generating cells with multilineage potential” (NEWSOUTH INNOVATIONS PTY LIMITED, priority 2012, dated 2018)", "molecules": {"B1": {"name": "bFgf: basic fibroblast growth factor, tested with or without AZA (protein, UniProt P15655 10-154, looked up)", "Fibroblast growth factor 2": "PALPEDGGAAFPPGHFKDPKRLYCKNGGFFLRIHPDGRVDGVREKSDPHVKLQLQAEERGVVSIKGVCANRYLAMKEDGRLLASKCVTEECFFFERLESNNYNTYRSRKYSSWYVALKRTGQYKLGSKTGPGQKAILFLPMSAKS"}, "B2": {"name": "Hgf: hepatocyte growth factor, tested with or without AZA (protein, UniProt Q08048 33-495; Q08048 496-728, looked up)", "Hepatocyte growth factor …": "QKKRRNTLHEFKKSAKTTLTKEDPLLKIKTKKVNSADECANRCIRNRGFTFTCKAFVFDKSRKRCYWYPFNSMSSGVKKGFGHEFDLYENKDYIRNCIIGKGGSYKGTVSITKSGIKCQPWNSMIPHEHSFLPSSYRGKDLQENYCRNPRGEEGGPWCFTSNPEVRYEVCDIPQCSEVECMTCNGESYRGPMDHTESGKTCQRWDQQTPHRHKFLPERYPDKGFDDNYCRNPDGKPRPWCYTLDPDTPWEYCAIKTCAHSAVNETDVPMETTECIQGQGEGYRGTSNTIWNGIPCQRWDSQYPHKHDITPENFKCKDLRENYCRNPDGAESPWCFTTDPNIRVGYCSQIPKCDVSSGQDCYRGNGKNYMGNLSKTRSGLTCSMWDKNMEDLHRHIFWEPDASKLNKNYCRNPDDDAHGPWCYTGNPLIPWDYCPISRCEGDTTPTIVNLDHPVISCAKTKQLR", "Hepatocyte growth factor beta …": "VVNGIPTQTTVGWMVSLKYRNKHICGGSLIKESWVLTARQCFPARNKDLKDYEAWLGIHDVHERGEEKRKQILNISQLVYGPEGSDLVLLKLARPAILDNFVSTIDLPSYGCTIPEKTTCSIYGWGYTGLINADGLLRVAHLYIMGNEKCSQHHQGKVTLNESELCAGAEKIGSGPCEGDYGGPLICEQHKMRMVLGVIVPGRGCAIPNRPGIFVRVAYYAKWIHKVILTYKL"}, "B3": {"name": "Pdgf-BB: platelet derived growth factor BB, tested with/without AZA (protein, UniProt P31240 82-190, looked up)", "Platelet-derived growth …": "SLGSLAAAEPAVIAECKTRTEVFQISRNLIDRTNANFLVWPPCVEVQRCSGCCNNRNVQCRASQVQMRPVQVRKIEIVRKKPIFKKATVTLEDHLACKCETIVTPRPVT", "modifications": "homodimer", "notes": "platelet derived growth factor BB, tested with/without AZA"}}, "type_in_all_cases": "cell-based, mouse", "key": {"primary osteoblasts [1]": {"tested_on": "primary osteoblasts", "assay": "Inhibitor studies: PDGF-AB/AZA mediated oCFU-F production from primary osteoblasts", "settings": "inhibitor in reprogramming cocktail from day 1 for 12 days", "experimental": "(§1) In vitro differentiated bone, cartilage, fat and long-bone derived osteocytes were first cultured in MSC medium (αMEM+20% FCS+P/S/G) with or without 10 μM 5′Azacitidine (Tocris Biosciences) and with or without cytokine (50 or 100 ng/ml Pdgf-AA or Pdgf-BB or Pdgf-AB, 10 ng/ml bFgf, 20 ng/ml HGF, 10 ng/ml Igf-1 and 10 ng/ml Vegf for 2 days and then cultured in MSC media with or without cytokine for 10 days. In order to investigate the reprogramming cell signalling pathways, inhibitors were added to the reprogramming cocktail from day 1 and kept for 12 days. Media was refreshed every 3-4 days. At the end of day 12 cells were harvested for downstream analysis.\nActive Pdgf isoforms stimulate cells by binding to and activating signalling by dimerization of two distinct, but structurally related, membrane bound receptor tyrosine kinases; Pdgf receptor-α (Pdgfrα) and Pdgf receptor-β (Pdgfrβ). Pdgf-BB has a greater binding affinity for Pdgfrβ but can also bind Pdgfrα whereas Pdgf-AA interacts only with Pdgfrα. Therefore, Pdgf-AA induces αα-receptor homodimers, PDGF-AB, both αα-receptor homodimers and αβ-receptor heterodimers and Pdgf-BB, all three dimeric combinations of α and β receptors, however in vivo binding of PDGF-AB is not known. Primary osteoblasts express Pdgfrβ but not Pdgfrα. […]"}, "[2]": {"tested_on": "in vitro differentiated bone, cartilage and fat cells", "assay": "CFU-F colony formation and replating of in vitro derived bone, cartilage and fat cells cultured with cytokines with and without AZA", "settings": "for colony forming potential (CFU-F): cells maintained 12 days in MSC culture medium with supplement", "experimental": "as §1\nCFU-Fs, oCFU-Fs, cCFU-Fs and aCFU-Fs were expanded in bulk culture after plating 10,000 cells per T75 flask. Resulting cells were split every 8 days. CFU-F and oCFU-F colonies were isolated individually using cloning cylinders (‘O” rings) (Sigma-Aldrich) and CFU-F clones (micro, small and large) and Osteocyte oCFU-F clones (micro, small and large) were pooled individually as micro (MC), small (SC) and large (LC) colonies and cultured first in T25 flask for 12 days and then from passage 2 onwards in T75 flask for 12 days. Cumulative cells numbers were calculated and plotted (log 10 scale). Micro, small and large colony's 2ry, 3ry and 4ry colony formation was evaluated by plating single cell from individual colonies into 96 well plates. In order to investigate differences in proliferative capacity of reprogrammed cells compared with primary CFU-Fs, cells were plated on RTCA resistor plate 96 (Roche Diagnostics) (200 cells/well) and recorded using XCELLigence (ACEA Biosciences) every 15 mins for 8 days.\nTo test whether lineage committed mesodermal cells could be induced to proliferate, bone marrow CFU-Fs (Colony Forming Units-Fibroblast) were harvested from mice, and following in vitro differentiation into bone, cartilage and fat cells, cultured them with different cytokines with and without AZA.\nTo assess and compare clonal vigour of replated cells, the inventors have developed a system to classify CFU-Fs based on cell number and size (Chong et al., 2011)."}, "primary osteoblasts [3]": {"tested_on": "primary osteoblasts", "assay": "Surface Pdgf receptor expression and signalling protein levels in primary osteoblasts", "settings": "within 48 hours of exposure", "experimental": "Cell pellets were lysed in non-denaturing lysis buffer containing Complete Protease inhibitor cocktail (Roche) and PhosStop (Roche), followed by brief sonication using Bioruptor (Diagenode). The supernatant of the whole-cell extracts were loaded onto NuPage 4-12% Bis-Tri Gel (Life Technology) and transferred using iBlot Gel Transfer Kit (Nitrocellulose, Life Technology) according to the manufacturers instructions. Densitometry was performed using GE ImageQuant TL Software Version 7.0.\nActive Pdgf isoforms stimulate cells by binding to and activating signalling by dimerization of two distinct, but structurally related, membrane bound receptor tyrosine kinases; Pdgf receptor-α (Pdgfrα) and Pdgf receptor-β (Pdgfrβ). Pdgf-BB has a greater binding affinity for Pdgfrβ but can also bind Pdgfrα whereas Pdgf-AA interacts only with Pdgfrα. Therefore, Pdgf-AA induces αα-receptor homodimers, PDGF-AB, both αα-receptor homodimers and αβ-receptor heterodimers and Pdgf-BB, all three dimeric combinations of α and β receptors, however in vivo binding of PDGF-AB is not known. Primary osteoblasts express Pdgfrβ but not Pdgfrα. […] These included expression of Pdgf receptors α and β, and components of the Jak/Stat and Jnk/c-Jun pathways but not the PI3kinase pathway. […]"}, "[4]": {"tested_on": "osteocytes from long bones of Pdgfrα-H2B:GFP mice", "assay": "Reprogramming of primary osteocytes from Pdgfrα-H2B:GFP mice (CFU-F assays, flow cytometry)", "experimental": "Osteocytes were isolated from long bones of either wild-type C57BL/6 or Pdgfra-nGFP mice. The mice were sacrificed at 8-16 weeks of age. Tibias and femurs were removed, cleaned of soft tissues and transferred to ice cold PBS. Bone marrow was flushed out with 2% FCS in PBS and bones were crushed and cut into ˜200 μm-400 μm pieces using a mortar and pestle and scissors. Bone fragments were transferred into 5 ml of collagenase (Type II, 2 mg/ml) in PBS and placed on a water bath shaker at 37° C. for 30 min twice. Supernatant was collected and collagenase was inactivated with 10 ml of 2% FCS and 5 mM EDTA in PBS. Cells were collected through 40 μm cell strainer. Cells were stained for Seal, CD51, CD31, Lin/CD45 and Pdgfrα. These cells were FACS sorted for Sca1^−/CD31^−/Pdgfra-nGFP^−/Pdgfra-Protein^−/CD51^+ osteocytes. FACS sorted osteocytes and bone fragments were cultured independently in complete culture medium (DMEM+P/S/G+100 ug/ml of ascorbate+10% FCS). Cells were cultured at 37° C. and 5% CO2 in the incubator for 8-10 days. […]\nTo evaluate how primary lineage committed cells respond to PDGF-AB/AZA, the inventors harvested Lin^−, CD45^−/Sca1^−/CD31^−/Pdgfrα-nGFP^−/Pdgfrα^−/CD51^+ osteocytes from long bones of Pdgfrα-H2B:GFP mice. […] The emergence of CFU-F capacity in reprogrammed osteocytes was evaluated by replating cells for CFU-F assays from the end of day 1 onwards (FIG. 2A)."}}}
{"molecule": "COc1cc2ncc(-c3ccccc3)nc2cc1OC", "note": "[AG1296]", "values": [{"measurement": "PDGF-AB/AZA mediated oCFU-F production from primary osteoblasts in presence of inhibitor", "setting": "primary osteoblasts [1]", "value": "abolished"}]}
{"molecule": "Nc1ncn([C@@H]2O[C@H](CO)[C@@H](O)[C@H]2O)c(=O)n1", "note": "[AZA, Azacitidine, reference compound]", "values": [{"measurement": "serial passaging / replating of colonies", "setting": "[2]; bone, cartilage and fat cells", "value": "could not be replated at all"}, {"measurement": "number of CFU-Fs generated at first passage", "setting": "[2]; bone, cartilage and fat cells", "value": "also generated CFU-Fs at first passage"}, {"measurement": "surface Pdgfrα protein expression on primary osteoblasts", "setting": "primary osteoblasts [3]", "value": "Pdgfrα protein expression was evident"}]}
{"molecule": "Vegf", "values": [{"measurement": "number of CFU-Fs generated at first passage", "setting": "[2]; bone, cartilage and fat cells", "value": "substantially lower than with PDGF-AB"}, {"measurement": "numbers of large colonies at first passage", "setting": "[2]; bone, cartilage and fat cells", "value": "few large colonies"}, {"measurement": "colony forming potential (CFU-F)", "setting": "[2]", "value": "either no or limited CFU-F potential"}]}
{"molecule": "Igf-1: insulin-like growth factor-1, tested with or without AZA", "values": [{"measurement": "number of CFU-Fs generated at first passage", "setting": "[2]; bone, cartilage and fat cells", "value": "substantially lower than with PDGF-AB"}, {"measurement": "numbers of large colonies at first passage", "setting": "[2]; bone, cartilage and fat cells", "value": "few large colonies"}, {"measurement": "colony forming potential (CFU-F)", "setting": "[2]", "value": "either no or limited CFU-F potential"}]}
{"molecule": "B1", "values": [{"measurement": "number of CFU-Fs generated at first passage", "setting": "[2]; bone, cartilage and fat cells", "value": "substantially lower than with PDGF-AB"}, {"measurement": "numbers of large colonies at first passage", "setting": "[2]; bone, cartilage and fat cells", "value": "few large colonies"}, {"measurement": "colony forming potential (CFU-F)", "setting": "[2]", "value": "either no or limited CFU-F potential"}]}
{"molecule": "B2", "values": [{"measurement": "number of CFU-Fs generated at first passage", "setting": "[2]; bone, cartilage and fat cells", "value": "substantially lower than with PDGF-AB"}, {"measurement": "numbers of large colonies at first passage", "setting": "[2]; bone, cartilage and fat cells", "value": "few large colonies"}, {"measurement": "colony forming potential (CFU-F)", "setting": "[2]", "value": "either no or limited CFU-F potential"}]}
{"molecule": "B3", "values": [{"measurement": "passaging of CFU-F colonies from treated osteocytes", "setting": "[4]; 12 days treatment", "value": "could not be passaged"}, {"measurement": "CFU-F capacity of treated osteocytes", "setting": "[4]; up to 12 days treatment", "value": "very limited CFU-F capacity"}]}
